Experiments:
[1] = tested on: Immobilized FGGsh155:CB[8] hexamer (GSTF mutant sh155, FGG-tagged, SEQ ID NO: 2, with cucurbit[8]uril 1:1, on glutaraldehyde-crosslinked chitosan); type: biochemical
Procedure: Initially, 2%, 3% and 4% (w/v) medium molecular weight chitosan (molecular weight of 190 to 310 kDa) was dissolved by continuous stirring in 2% (v/v) acetic acid. The formed chitosan gels were stored at 4° C. until the following day (12 to 24 hours) in order to remove any trapped air. For the immobilisation, 180 mg of chitosan gel were deposited by a syringe at the bottom of a cuvette with 4 mL capacity. Then 50 μL of different concentrations of GA solution [0.4%, 0.5%, 0.6%, 0.7%, and 1% (v/v)] were added and the mixture was lightly stirred with a pipette tip. The carrier mixture was left for an hour so that the reaction of GA binding to the amino groups of the carrier was accomplished. GA was diluted in 20 mM KH2PO4, PH 7.0. Afterwards, the carrier was washed thrice with 2 mL 20 mM KH2PO4, PH 7, in order to remove any unbound GA molecules. The immobilization of FGGsh155:CB[8] was performed five days after the addition of the CB[8] macrocyclic agent at stoichiometry of 1:1, for uniformity of the experiments. Thus, 600 μL of the enzyme solution with 0.7-0.8 mg/mL concentration were added to the activated chitosan medium. The enzyme was incubated with the carrier at 25° C. overnight with stirring at 50-80 rpm. The following day, the volume of the enzyme solution that wasn't absorbed by the carrier was removed and the carrier was incubated with 600 μL of 2 mg/mL NaBH4 solution for 30 min. This step was conducted in order to stabilize the Schiff's bases that form due to the reaction of GA with the enzyme amino groups (Barbosa et al., 2014). Finally, three washes were performed with 20 mM KH2PO4, PH 7, for the removal of any unbound enzyme. Protein binding efficiency to the carrier (%) and retention of enzyme activity (%) were defined as: […]
Determination of the enzyme activity for the immobilised enzyme complex FGGsh155:CB[8] was performed using the CDNB/GSH substrate system with 20 mM KH2PO4, PH 7, as a reaction solution at 37° C., as has been previously described (Georgakis et al., 2020a; Axarli et al., 2017; Cho et al., 2005). The rate assay was recorded for 300 s at 340 nm.
Kinetic analysis for GSH was performed using standard CDNB concentration (1 mM) and varying GSH concentrations. Correspondingly, standard concentration of GSH substrate (2.5 mM) and varying concentrations of CDNB were utilised in the kinetic analysis for CDNB.
The kinetic parameters of the immobilized FGGsh155:CB[8] were calculated using the CDNB/GSH substrate system in 20 mM KH2PO4, PH 7.0, at 37° C. (FIG. 20) depicts the dependence of the enzyme's reaction rate on the substrate concentration. […] Respectively the kinetic analysis for GSH was carried with standard CDNB concentration (1 mM) and different GSH concentrations. […] The reduction in kcat is usually expected after immobilization (Neira & Herr, 2017).

[2] = tested on: FGGsh101 (phi class glutathione S-transferase GSTF mutant sh101, derived by DNA shuffling, with N-terminal FGG tag, SEQ ID NO: 1); type: biochemical
Procedure: (§1) GST activity assays were carried by using the 1-chloro-2,4-dinitrobenzene (CDNB)/glutathione (GSH) substrate system as described previously (Axarli et al., 2017; Georgakis et al., 2020). Determination of enzyme activity was conducted using 1 mM CDNB and 2.5 mM GSH final concentration in 0.1 M KH2PO4, PH 6.5 and 37° C. Kinetic analysis of the potential supramolecular protein complexes was performed as previously described (Axarli et al., 2016, Georgakis et al., 2020) five days after addition of CB[8] to the enzyme solution in 1:1 stoichiometry. Protein precipitates were removed by centrifugation at 10,000 rpm for 10 min prior to the analysis. The steady state data were processed using GraphPad Prism version 7 (GraphPad Prism Software, Inc.). Turnover numbers were evaluated for one active site per subunit of enzyme. Specific activity (SA) was estimated in micromoles per minute per milligram of protein (μmol min-1 mg-1). Determination of protein concentration was carried using the Bradford assay with bovine serum albumin as standard (Bradford, 1976).
(§2) The kinetic parameters of FGGsh101 and FGGsh155 were analyzed both in absence of CB[8] and five days after the addition of the macrocyclic host in 1:1 ratio. […] (see Example 3)

[3] = tested on: FGGsh155 (phi class glutathione S-transferase GSTF mutant sh155, derived by DNA shuffling, with N-terminal FGG tag, SEQ ID NO: 2); type: biochemical
Procedure: as §1, §2

[4] = tested on: FGGsh101:CB[8] (FGG-tagged phi class glutathione S-transferase GSTF mutant sh101, SEQ ID NO: 1, with cucurbit[8]uril 1:1); type: biochemical
Procedure: as §1, §2

[5] = tested on: FGGsh155:CB[8] hexamer (FGG-tagged phi class glutathione S-transferase GSTF mutant sh155, SEQ ID NO: 2, with cucurbit[8]uril 1:1); type: biochemical
Procedure: as §1, §2

[6] = Thermal stability (Tm) by differential scanning fluorimetry; type: physicochemical; conditions: for second distinct melting point Tm2 / increase in Tm1: after addition of CB[8]; for increase in Tm1: versus Tm0, especially 1:1 stoichiometry
Procedure: The thermostability of FGG-GSTFs, FGGsh101 and FGGsh155 was assessed by differential scanning fluorimetry (DSF) in the presence of the macrocyclic compound CB[8]. CB[8] was added in stoichiometry of 1:1 and 2:1 enzyme to host concentration. The reaction was performed in 50 mM KH2PO4 solution, pH 7.14, using either 15 μM enzyme and 15 μM CB[8] (1:1) or 15 μM enzyme and 7.5 μM CB[8] (2:1). A “control” reaction for each ratio was also measured, where only CB[8]'s solvent of was added to the enzyme. Differential scanning fluorimetry was performed in 20 mM KH2PO4 buffer, pH 7, with 4 μg of protein sample, according to published methods (Huynh & Partch, 2015). Thermal shift assays we carried using a Real-time PCR StepOne™ instrument (Applied Biosystems, USA) and the SYPRO Orange protein dye at a temperature range between 15° C. and 99° C. with a ramping rate of 1%. Temperature of protein denaturation midpoint (Tm) was estimated by the first derivative of the normalized fluorescence data.

[7] = Steady-state kinetic analysis of FGG-GSTFs, CDNB/GSH substrate system; type: biochemical; conditions: for catalytic constant: enzyme samples with CB[8] in 1:1 stoichiometry; for kcat: free enzyme
Procedure: as §1
The kinetic parameters of FGGsh101 and FGGsh155 were analyzed both in absence of CB[8] and five days after the addition of the macrocyclic host in 1:1 ratio. This was determined according to the fluorescence intensity monitoring experiments, where the reduction of fluorescence emission appeared to reach a plateau after 4-5 days. (see Example 3)

[8] = Enzyme stability upon storage at 4° C. (retention of activity); type: physicochemical; conditions: first twenty days
Procedure: Enzymatic stability was determined as the retention of enzyme activity overtime upon storage at 4° C. for the FGGsh155:CB[8] before and after immobilization, as well as the unmodified form of FGGsh155. Monitoring of the enzyme inactivation was determined using the CDNB/GSH substrate system.

[9] = CDNB/GSH substrate system, pH 6.5, 37° C., one active site per subunit

Molecule: N[C@@H](CCC(=O)N[C@@H](CS)C(=O)NCC(=O)O)C(=O)O [GSH, glutathione]
- kcat/Km GSH ([1]; 20 mM KH2PO4, pH 7.0, 37° C.): 1.01 min⁻¹ mM⁻¹
- Km ([1]; CDNB 1 mM, 20 mM KH2PO4, pH 7.0, 37° C., read-out: Km GSH): 1.26 ± 0.08 mM
- kcat/Km GSH ([2]; pH 6.5): 118.68 min⁻¹ mM⁻¹
- Km ([2]; pH 6.5, read-out: Km GSH): 1.36 ± 0.02 mM
- kcat/Km GSH ([3]; pH 6.5): 113.78 min⁻¹ mM⁻¹
- Km ([3]; pH 6.5, read-out: Km GSH): 1.48 ± 0.03 mM
- kcat/Km GSH ([4]; pH 6.5): 95.67 min⁻¹ mM⁻¹
- Km ([4]; pH 6.5, read-out: Km GSH): 1.41 ± 0.05 mM
- kcat/Km GSH ([5]; pH 6.5): 84.62 min⁻¹ mM⁻¹
- Km ([5]; pH 6.5, read-out: Km GSH): 1.43 ± 0.03 mM

Molecule: O=[N+]([O-])c1ccc(Cl)c([N+](=O)[O-])c1 [CDNB, 1-chloro-2,4-dinitrobenzene]
- kcat/S0.5 CDNB ([1]; 20 mM KH2PO4, pH 7.0, 37° C.): 1.14 min⁻¹ mM⁻¹
- nH (Hill coefficient) ([1]; CDNB variable, GSH 2.5 mM, pH 7.0, 37° C.): 1.47 ± 0.12
- kcat ([1]; CDNB/GSH substrate system, 20 mM KH2PO4, pH 7.0, 37° C.): 1.28 ± 0.12 min⁻¹
- nH (Hill coefficient) ([2]; CDNB variable, pH 6.5, 37° C.): 1.17 ± 0.03
- kcat [2, 9]: 159.4 ± 1.21 min⁻¹
- kcat/S0.5 CDNB ([2]; pH 6.5, 37° C.): 397.51 min⁻¹ mM⁻¹
- nH (Hill coefficient) ([3]; CDNB variable, pH 6.5, 37° C.): 1.01 ± 0.03
- kcat [3, 9]: 168.4 ± 2.72 min⁻¹
- kcat/S0.5 CDNB ([3]; pH 6.5, 37° C.): 218.7 min⁻¹ mM⁻¹
- nH (Hill coefficient) ([4]; CDNB variable, five days after CB[8] addition 1:1, pH 6.5, 37° C.): 1.1 ± 0.06
- kcat ([4]; CDNB/GSH substrate system, five days after CB[8] addition 1:1, pH 6.5, 37° C.): 134.9 ± 3.28 min⁻¹
- kcat/S0.5 CDNB ([4]; five days after CB[8] addition 1:1, pH 6.5, 37° C.): 240.89 min⁻¹ mM⁻¹
- nH (Hill coefficient) ([5]; free enzyme, CDNB variable, five days after CB[8] addition 1:1, pH 6.5, 37° C.): 1.01 ± 0.02
- kcat ([5]; free enzyme, CDNB/GSH substrate system, five days after CB[8] addition 1:1, pH 6.5, 37° C.): 121 ± 1.14 min⁻¹
- S0.5 CDNB ([5]; free enzyme, GSH at fixed concentration, five days after CB[8] addition 1:1, pH 6.5, 37° C.): 0.81 ± 0.05 mM
- kcat/S0.5 CDNB ([5]; free enzyme, five days after CB[8] addition 1:1, pH 6.5, 37° C.): 149.38 min⁻¹ mM⁻¹

B1: sh101: phi class cytosolic glutathione S-transferase mutant from DNA shuffling, without FGG tag (protein)
chain: MFGGAPVKVFGPAMSTNVARVTLCLEEVGAEYEVVNIDFNTMEHKSPEHLARNPFGQIPAFQDGDLLLWESRAISKYVLRKYKTDEVDLLREGNLKEAAMVDVWTEYDAHTYNPALSPIVYECLINPLMRGLPTNQTVVDESLEKLKKVLEVYEARLSQHKYLAGDFVSFADLNHFPYTFYFMATPHAALFDSYPHVKAWWDRLMARPAVKKIAATMVPPKA
- effect of CB[8] addition on Tm of enzyme forms that weren't FGG-tagged ([6]; 1:1 and 2:1, almost ten days): did not induce the appearance of an additional Tm value

B2: FGGsh101: phi class GST mutant sh101 (SEQ ID NO: 1) with N-terminal phenylalanine-glycine-glycine tag; dimer (protein)
chain: MFGGAPVKVFGPAMSTNVARVTLCLEEVGAEYEVVNIDFNTMEHKSPEHLARNPFGQIPAFQDGDLLLWESRAISKYVLRKYKTDEVDLLREGNLKEAAMVDVWTEYDAHTYNPALSPIVYECLINPLMRGLPTNQTVVDESLEKLKKVLEVYEARLSQHKYLAGDFVSFADLNHFPYTFYFMATPHAALFDSYPHVKAWWDRLMARPAVKKIAATMVPPKA
modifications: N-terminal FGG tag; dimer
- catalytic constant [7]: 134.9 ± 3.28 min⁻¹
- kcat [7]: 159.4 ± 1.21 min⁻¹
- second distinct melting point Tm2 [6]: ≈ 85 °C
- increase in Tm1 [6]: 1.5-2 °C

B3: FGGsh155: phi class GST mutant sh155 (SEQ ID NO: 2) with N-terminal phenylalanine-glycine-glycine tag; dimer (protein)
chain: MFGGAPVKVFGPAMSTNVARVTLCLEEVGAEYEVVDIDFKAMEHKSPEHLVRNPFGQIPAFQDGDLLLFESRAIAKYVLRKYKTDEVDLLREGNLKEAAMVDVWTEYDAHTYNPALSPIVYECLINPLMRGLPTNQTVVDESLEKLKKVLEVYEARLSQHKYLAGDFVSFADLNHFPYTFYFMATPHAALFDSYPHVKAWWDRLMARPAVKKIAATMVPPKA
modifications: N-terminal FGG tag; dimer
- retained activity [8]: approximately 50%
- catalytic constant [7]: 121 ± 1.14 min⁻¹
- kcat [7]: 168.4 ± 2.72 min⁻¹
- second distinct melting point Tm2 [6]: ≈ 85 °C
- increase in Tm1 [6]: up to 3.5 °C
